Results taken from patent US20220339178A1, “COMPOSITIONS AND METHODS FOR COGNITIVE PROTECTION OF POLLINATORS AGAINST PESTICIDES” (priority 2019, published 2022).

Assays:
[1] = tested on: Honeybees (Apis mellifera scutellata); assay: Classical conditioning of the proboscis extension response (PER): learning, 24 h memory retention, latency; flavonoids vs imidacloprid; format: in vivo
Procedure: Honeybees (Apis mellifera scutellata) were captured from established hives at the Apiary of the Pontificia Universidad Javeriana (Bogota, Colombia). Foragers were collected while leaving to forage between 8:00 am and 10:00 am (Matsumoto et al., J Neurosci Methods. 211(1):159-67. 2012). Bees were maintained in individual plastic chambers under laboratory conditions (photoperiod followed seasonal pattern; relative humidity: 63%; temperature: 18° C.). Food was provided once a day in a volume of 20 μL and varied in composition according to experimental treatments.
Control (2M sugar water): fed once a day (20 μL) for three consecutive days;
Quercetin (6.6 mM quercetin (Sigma-Aldrich: Q4951)-sucrose-water with DMSO 1% (Sigma-Aldrich: D8418): fed once a day for three days;
Rutin (1 mM rutin (Sigma-Aldrich R5143)-sucrose-water with DMSO 1%: fed once a day for three days;
Imidacloprid (1.16 nM Imidacloprid (Bayer)-sucrose-water: fed as a single dose (20 μL) 1.5 h before training;
Quercetin-Imidacloprid: bees received the quercetin treatment (see above) and were fed Imidacloprid 1.5 h before training; and
Rutin-Imidacloprid: bees received the rutin treatment (see above) and were fed Imidacloprid 1.5 h before training.
Bees were trained using classical conditioning of the proboscis extension response (PER), a broadly used method to study learning and memory in bees. Briefly, bees received a soft current of clean air for 15 seconds to allow bees to accommodate. Then a soft current of 1-hexanol (Sigma-Aldrich: 471402) was injected for 10 seconds. Six seconds after injection of 1-hexanol, one of the antennae was stimulated with sucrose water (50% w/w), which leads to the reflexive extension of the proboscis, and the bee was allowed to drink for 4 seconds. Thus, the reward and the stimulus overlapped for four seconds. This sequence, recognized as a training trial, was repeated eight times. Time was determined using a metronome (2 Hz). Memory retention was tested 24 hours after the eight training trials. […] 12 bees were trained each session. Training was conducted by an experimenter blind to treatment.
Learning was assessed from the total number of conditioned responses across the eight trials. Thus, each bee received a learning score between 0-7 (by definition, bees cannot show a learned response at the first trial). After 24 h, memory retention was assessed as the response to the presentation of 1-hexanol without a sucrose reward. Latency of response was quantified as the time between the onset of 1-hexanol stimulation and the onset of a response that led to a full extension of proboscis. Only bees being responsive to sucrose water across all training trials and the memory retention test were considered for analyses. Learning scores were compared across treatments using a Mann-Whitney test as data were not normally distributed (Shapiro-Wilk W test for the hypothesis that the data is from a Normal distribution: P<0.05 for all treatments). Comparisons of the learning score of bees across all treatments relative to Control bees were conducted using the Steel method adjusted as one or two-tailed tests. Additional post hoc comparisons were performed between Imid and Quer+Imid bees and between Imid and Rut+Imid bees. Memory retention was compared across groups using an overall Chi-Square test and independent tests for planned comparisons were performed using adjusted Wald tests for proportions. In all cases error due to multiple comparisons was controlled using the False Discovery Rate one stage method and adjusted p-values (q-values) are presented (Benjamini & Hochberg, Journal of the Royal Statistical Society. Series B (Methodological), 57(1):289-300. 1995; Pike, N., Methods in Ecology and Evolution, 2(3):278-282. 2011). All analyses were conducted using JMP v.14.0 (SAS Institute Inc). […]

[2] = tested on: AChE; settings: literature report; cited from earlier work
[3] = tested on: butyrylcholinesterase (BChE); settings: literature report; cited from earlier work

SMILES: O=c1c(O)c(-c2ccc(O)c(O)c2)oc2cc(O)cc(O)c12 [Quercetin]
- memory retention, proportion difference relative to Control bees (Adjusted Wald test) ([1]; conditioned PER after 24 h): −0.13
- latency of response during learning acquisition relative to Control bees ([1]; honey bees): not significantly different from Control
- learning scores relative to bees in the Imid group ([1]; honey bees prophylactically fed flavonoid for three days, then imidacloprid 1.5 h before training): significantly higher learning scores
- learning scores relative to Control bees ([1]; honey bees, 8 trials, score 0-7, quercetin 6.6 mM or rutin 1 mM once a day for three days, imidacloprid 1.16 nM 20 μL 1.5 h before training): significantly higher learning scores
- inhibition of AChE [2]: concentration-dependent inhibition ability
- inhibition of butyrylcholinesterase (BChE) [3]: concentration-dependent inhibition ability
